Experiment [1] deals with T1, hMC-3R (Homo sapiens, UniProt P41968).
T1 construct: expressed in transfected cells; host or cells: Chinese hamster ovary (CHO) cells
The experiment is described as follows: Competitive binding assay, [125I]-NDP-α-MSH, CHO cell membranes. As to conditions: read-out: Binding Assay IC50 hMC-3R. How it is done:
The peptides of the present invention were evaluated for […] in receptor binding assay. Crude membrane preparations were obtained from Chinese hamster ovary cells expressing human MC3, MC4, and MC5 receptors. Cells were rinsed with phosphate-buffered saline (PBS) lacking CaCl2 or MgCl2 (Life Technologies, Gaithersburg, Md., USA), and then detached with enzyme-free dissociation media (Specialty Media, Lavellette, N.J., USA). Cells were pelleted at 2800×g for 10 minutes and resuspended in membrane buffer (20 mM Tris, pH 7.2, 5 mM ethylenediaminetetraacetic acid) with 5 μg/ml leupeptin, 5 μg/ml aprotinin, 40 μg/ml bacitracin, and 25 μg/m pefabloc (Boehringer Mannheim). […]
Binding reactions (total volume=[…]) contained MBB (50 mM Tris, pH 7.2, 2 mM CaCl2, 1 mM MgCl2), 0.1% bovine serum albumin, crude membranes prepared from cells expressing human MC3, MC4, or MC5 receptor, 200 pM of [125I]-NDP-α-MSH (Amersham, Arlington Heighs, Ill., USA), and increasing concentrations of unlabeled test compounds dissolved in dimethylsulfoxide (final concentration=2%). […] Filters were washed 3 times with TNE buffer (50 mM Tris, pH 7.4, 5 mM ethylenediaminetetraacetic acid, 150 mM NaCl), dried and counted by using Microscint-20 in a Topcount scintillation counter (Packard). Nonspecific binding was determined in the presence of 2 μm of unlabeled NDP-α-MSH (Peninsula Laboratories). […]

Another experiment addresses T2, hMC-1R (Homo sapiens, UniProt Q01726).
T2 construct: expressed in transfected cells; host or cells: Chinese hamster ovary (CHO) cells
The experiment in a line: cAMP assay in CHO cells expressing a human melanocortin receptor. It counts as cell-based. As to the method:
(§1) Chinese hamster ovary cells expressing a human melanocortin receptor were rinsed with calcium-and magnesium-free PBS (Life Technologies), and detached from the tissue culture flasks by 5-minutes incubation with enzyme-free dissociation buffer (S-014-B, Specialty Media). Cells were collected by centrifugation and resuspended in Earle's balanced salt solution (Life Technologies) with addition of 10 mM 4-(2-hydroxyethyl)-1-piperazineethanesulfonic acid (Hepes) buffer, pH 7.5, 5 mM MgCl2, 1 mM glutamine, and 1 mg/ml bovine serum albumin to concentration of 1-5×10^6 cells/ml. Subsequently, cells were counted and the cell suspension was treated with the phosphodiesterase inhibitor 3-isobutyl-1-methylxanthine (to concentration of 0.6 mM).
(§2) A test compound was dissolved in dimethyl sulfoxide (DMSO, 10^−3 to 10^−8 M), diluted with buffer and 0.1 volume of the solution was added to 0.9 volumes of the cell suspension (1 to 5×10^5 cells); final concentration of DMSO was 1%. After 45 minutes at room temperature, cells were lysed by incubation at 100° C. for 5 minutes to release accumulated cAMP. Accumulation of cAMP was measured in an aliquot of the cell lysate with the Amersham (Arlington Heights, Ill.) cAMP detection assay kit (RPA556). The amount of cAMP produced in response to a tested compound was compared to the amount of cAMP produced in response to α-MSH, defined as a 100% agonist. […]

Experiment [2] deals with T1, hMC-3R. The description is as above. It counts as cell-based. As to the method:
as §1, §2

The target in experiment [3] is T3, MC4R (Homo sapiens, UniProt P32245). The experiment in a line: Competitive binding assay, [125I]-NDP-α-MSH, CHO cell membranes. The arrangement: expressed in transfected cells; host or cells: Chinese hamster ovary (CHO) cells. As to the method:
(§3) The peptides of the present invention were evaluated for […] in receptor binding assay. Crude membrane preparations were obtained from Chinese hamster ovary cells expressing human MC3, MC4, and MC5 receptors. Cells were rinsed with phosphate-buffered saline (PBS) lacking CaCl2 or MgCl2 (Life Technologies, Gaithersburg, Md., USA), and then detached with enzyme-free dissociation media (Specialty Media, Lavellette, N.J., USA). Cells were pelleted at 2800×g for 10 minutes and resuspended in membrane buffer (20 mM Tris, pH 7.2, 5 mM ethylenediaminetetraacetic acid) with 5 μg/ml leupeptin, 5 μg/ml aprotinin, 40 μg/ml bacitracin, and 25 μg/m pefabloc (Boehringer Mannheim). The cells were […] with 10 strokes by using a motor-driven Teflon-coated pestle in a glass homogenizer at low speed. The resulting cell suspension was centrifuged at 4100×g, 4° C., for 20 minutes. The pellet was resuspended in fresh membrane buffer with protease inhibitors, aliquoted, snap-frozen in liquid nitrogen, and stored at −80° C. The resulting crude membranes were titrated to determine the optimal level necessary for performing binding studies. Results
(§4) Binding reactions (total volume=[…]) contained MBB (50 mM Tris, pH 7.2, 2 mM CaCl2, 1 mM MgCl2), 0.1% bovine serum albumin, crude membranes prepared from cells expressing human MC3, MC4, or MC5 receptor, 200 pM of [125I]-NDP-α-MSH (Amersham, Arlington Heighs, Ill., USA), and increasing concentrations of unlabeled test compounds dissolved in dimethylsulfoxide (final concentration=2%). Reactions were incubated for 1 hour without shaking and then filtered through 96-well filter plates (Packard), presoaked in 1% polyethyleneimine. Filters were washed 3 times with TNE buffer (50 mM Tris, pH 7.4, 5 mM ethylenediaminetetraacetic acid, 150 mM NaCl), dried and counted by using Microscint-20 in a Topcount scintillation counter (Packard). Nonspecific binding was determined in the presence of 2 μm of unlabeled NDP-α-MSH (Peninsula Laboratories). Active peptides were evaluated in three independent experiments.

In experiment [4] the target is T4, MC5R (Homo sapiens, UniProt P33032). The experiment is described as above. Conditions: read-out: Binding Assay IC50 hMC-5R. The arrangement: expressed in transfected cells; host or cells: Chinese hamster ovary (CHO) cells. As to the method: as §3, §4
For experiment [5], the target named is T3, MC4R. The experiment is described as follows: cAMP assay in CHO cells expressing a human melanocortin receptor. The experiment is classed as cell-based. More on the design: expressed in transfected cells; host or cells: Chinese hamster ovary (CHO) cells. How it is done: as §1
(§5) A test compound was dissolved in dimethyl sulfoxide (DMSO, 10^−3 to 10^−8 M), diluted with buffer and 0.1 volume of the solution was added to 0.9 volumes of the cell suspension (1 to 5×10^5 cells); final concentration of DMSO was 1%. After 45 minutes at room temperature, cells were lysed by incubation at 100° C. for 5 minutes to release accumulated cAMP. Accumulation of cAMP was measured in an aliquot of the cell lysate with the Amersham (Arlington Heights, Ill.) cAMP detection assay kit (RPA556). The amount of cAMP produced in response to a tested compound was compared to the amount of cAMP produced in response to α-MSH, defined as a 100% agonist. All active peptides were characterized in three independent experiments.
For orientation: cAMP levels reflect the balance of adenylyl cyclase and phosphodiesterase activity.

In experiment [6] the target is T4, MC5R. The experiment is described as above. The experiment is classed as cell-based. More on the design: expressed in transfected cells; host or cells: Chinese hamster ovary (CHO) cells. As to the method:
as §1, §5

pEC50, pIC50: −log10 of the molar value. Bridge positions count the residues as written; N and C are the ends. Square brackets hold non-standard residues; d marks the D form. Peptide text beside a SMILES is read from it. βAla = NCCC(=O)O

What is called pIC50 is −log10 of the IC50, conventionally taken in molar units. The pEC50 is −log10 of the EC50, conventionally taken in molar units.

T3 sequence (P32245 whole entry): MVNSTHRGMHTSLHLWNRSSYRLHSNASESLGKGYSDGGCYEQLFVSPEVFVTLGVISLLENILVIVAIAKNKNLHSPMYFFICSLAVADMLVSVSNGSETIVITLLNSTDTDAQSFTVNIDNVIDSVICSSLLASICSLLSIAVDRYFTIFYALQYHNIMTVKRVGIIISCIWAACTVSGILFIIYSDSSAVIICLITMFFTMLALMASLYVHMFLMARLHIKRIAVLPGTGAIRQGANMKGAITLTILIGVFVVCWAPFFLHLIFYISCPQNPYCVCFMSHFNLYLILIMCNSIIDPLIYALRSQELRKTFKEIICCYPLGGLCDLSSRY
T4 sequence (P33032 whole entry): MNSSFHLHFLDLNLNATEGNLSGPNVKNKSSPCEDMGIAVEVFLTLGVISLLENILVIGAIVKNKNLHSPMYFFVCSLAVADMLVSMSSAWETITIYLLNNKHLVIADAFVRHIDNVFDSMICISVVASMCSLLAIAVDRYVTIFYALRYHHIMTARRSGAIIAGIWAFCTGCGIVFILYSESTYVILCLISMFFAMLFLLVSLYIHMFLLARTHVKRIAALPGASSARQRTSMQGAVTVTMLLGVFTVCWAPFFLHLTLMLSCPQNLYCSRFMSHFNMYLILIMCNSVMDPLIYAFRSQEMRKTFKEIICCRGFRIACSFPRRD
T1 sequence (P41968 whole entry): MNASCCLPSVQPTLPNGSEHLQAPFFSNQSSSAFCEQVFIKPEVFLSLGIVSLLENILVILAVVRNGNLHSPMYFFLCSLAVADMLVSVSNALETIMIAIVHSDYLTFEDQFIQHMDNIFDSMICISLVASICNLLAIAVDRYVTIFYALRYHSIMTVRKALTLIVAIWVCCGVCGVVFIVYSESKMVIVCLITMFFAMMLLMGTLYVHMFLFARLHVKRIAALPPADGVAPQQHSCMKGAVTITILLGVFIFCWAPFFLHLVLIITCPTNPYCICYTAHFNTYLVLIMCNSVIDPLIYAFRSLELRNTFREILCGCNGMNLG
T2 sequence (Q01726 whole entry): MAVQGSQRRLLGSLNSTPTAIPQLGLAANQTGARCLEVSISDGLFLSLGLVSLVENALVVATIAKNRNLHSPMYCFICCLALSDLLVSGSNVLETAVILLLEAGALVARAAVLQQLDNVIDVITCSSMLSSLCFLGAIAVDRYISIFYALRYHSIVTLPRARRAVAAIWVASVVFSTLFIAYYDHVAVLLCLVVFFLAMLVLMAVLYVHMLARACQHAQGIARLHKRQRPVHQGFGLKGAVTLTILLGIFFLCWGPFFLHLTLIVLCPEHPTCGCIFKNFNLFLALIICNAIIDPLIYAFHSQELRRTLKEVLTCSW

For `N=C(N)NCCC[C@@H]1NC(=O)[C@@H](Cc2ccccc2)NC(=O)[C@H](Cc2c[nH]cn2)NC(=O)CCNC(=O)CC[C@@H](C(N)=O)NC(=O)[C@H](Cc2c[nH]c3ccccc23)NC1=O` [Example 8] ([βAla]H[dF]RWE-NH2; lactam N-6 (inferred)), the negative logarithm of the IC50 (pIC50) on hMC-3R [1] is 6.31; at MC4R [3] (read-out: Binding Assay IC50 hMC-4R), 8.40; on MC5R [4] it was 5.34. The pEC50 at hMC-1R is 7.96; on hMC-3R [2] it was 7.23; on MC4R [5] it was 9.28; on MC5R [6] it was 5.72. Further, on MC4R [3] (ratio of IC50 hMC-3R / hMC-4R), the “Selectivity Binding IC50 3R/4R” value is given as 122.5. Besides, the “Selectivity Binding IC50 5R/4R” value at MC4R [3] (ratio of IC50 hMC-5R / hMC-4R) worked out at 1150. Besides, the “Selectivity cAMP EC50 1R/4R” value at MC4R [5] (ratio of EC50 hMC-1R / hMC-4R) was found to be 20.75. In addition, the “Selectivity cAMP EC50 3R/4R” value at MC4R [5] (ratio of EC50 hMC-3R / hMC-4R) is recorded as 111. Further, the “Selectivity cAMP EC50 5R/4R” value at MC4R [5] (ratio of EC50 hMC-5R / hMC-4R) is reported as 3585.

For the origin of these results see patent US20070155660A1, “Inhibition of voluntary ethanol consumption with selective melanocortin 4-receptor agonists” (priority 2003, published 2007).
